Where “and” joins values, the source holds several entries; their conditions need not be identical. Equal entries are not always repeated.
What was measured:
[1] = system: E. coli CICC21530 (serotype O157:H7); type: cell-based, Escherichia coli; details: microtiter broth dilution, 10^5 CFU/ml, 16‒18 h at 37 °C; representative of three independent experiments
Method: (§1) The MIC values of LfcinB17-33 derivatives against bacteria were determined by the microtiter broth dilution method. Briefly, 10 μl of serially diluted aliquots of peptides were added to each well of 96-well microtiter plates, followed by the addition of 90 μl exponential phase bacteria (10^5 CFU/ml) and incubated for 16‒18 h at 37 °C.

E. coli CVCC1515 = type: cell-based, Escherichia coli; details: microtiter broth dilution, 10^5 CFU/ml, 16‒18 h at 37 °C; representative of three independent experiments
Method: as §1

S. enteritidis CVCC3377 [2] = type: cell-based, Salmonella enteritidis; details: microtiter broth dilution, 10^5 CFU/ml, 16‒18 h at 37 °C; representative of three independent experiments
Method: as §1

S. aureus ATCC25923 [3] = test: Cell surface hydrophobicity, hexadecane partitioning; type: cell-based, Staphylococcus aureus; details: peptide 1×, 2× or 4× MIC, 10 min 37 °C, increased from 5.27% (untreated) to this value, mean, n = 3
Method: (§2) The effects of AMPs on the cell surface hydrophobicity of S. aureus ATCC25923 and S. enteritidis CVCC3377 were measured using the hexadecane partitioning method. Cells were grown to stationary phase in Mueller-Hinton broth at 37 °C, harvested by centrifugation at 5000 rpm for 4 min, washed twice with sterile normal saline, and suspended in 0.1 M KNO3 (pH 6.2) to an OD600 nm of 0.4. […] Sterile normal saline was used as a negative control, and the optical density at 600 nm was measured as OD0. Subsequently, a 1.2-ml cell suspension was mixed with 0.2 ml of hexadecane by vortexing for 1 min, and then, the mixture was incubated for 15 min. The OD600 nm value of the aqueous phase was determined as OD1. The hydrophobicity percentages were calculated by the following equation: hydrophobicity (%) = (1 − OD1/OD0) × 100%. All experiments were repeated three times.

S. enteritidis CVCC3377 [4] = test: as above; type: cell-based, Salmonella enteritidis; details: peptide 1×, 2× or 4× MIC, 10 min 37 °C, increased from 9.43% (untreated) to this value, mean, n = 3
Method: as §2

S. aureus ATCC25923 [5] = test: Outer membrane permeabilization, NPN uptake; type: cell-based, Staphylococcus aureus; details: 1×, 2× or 4 × MIC; HEPES buffer pH 7.2
Method: (§3) The effects of Lfcin4 and Lfcin5 on the outer membrane of S. aureus ATCC25923 and S. enteritidis CVCC3377 were determined by measuring the uptake of NPN[44][45]. Mid-log phase cells were washed with sterile normal saline three times and suspended in 5 mM HEPES buffer (pH 7.2, containing 5 mM glucose) to an OD at 600 nm of 0.5. […] The relative fluorescence intensity was measured using an Infinite M200 PRO plate reader. The excitation and emission wavelengths were set at 328 and 438 nm, respectively. Treatment with PBS severed as a negative control, and treatment with ampicillin or colistin was used as a positive control.

S. enteritidis CVCC337 = test: Outer membrane permeabilization, NPN uptake; type: cell-based, Salmonella enteritidis; details: 1×, 2× or 4 × MIC; HEPES buffer pH 7.2
Method: as §3

[6] = system: genomic DNA from E. coli O157; test: Gel retardation (EMSA) of genomic DNA; type: binding, Escherichia coli; details: 0.7% agarose gel, 10 min 37 °C; ratios tested 0, 0.5, 1, 2.5, 5, 10 (w/w)
Method: (§4) Genomic DNA was extracted from S. aureus ATCC25923, E. coli O157 and S. enteritidis CVCC3377 using a TIANamp Bacteria DNA Kit (TIANGEN Biotech Co., Ltd., Beijing). The gel retardation experiment was performed by mixing the bacterial DNA with different concentrations of Lfcin4 or Lfcin5 in 20 μl binding buffer (10 mM Tris-HCl, pH 8.0, 5% glycerol, 1 mM dithiothreitol, 1 mM EDTA, 20 mM KCl, and 50 μg/ml bovine serum albumin)[41]. The ratios of peptide to DNA were 0, 0.5, 1, 2.5, 5.0, and 10.0 (w/w). The mixtures were incubated for 10 min at 37 °C and then subjected to electrophoresis on a 0.7% agarose gel.

[7] = system: genomic DNA from S. aureus ATCC25923; test: Gel retardation (EMSA) of genomic DNA; type: binding, Staphylococcus aureus; details: 0.7% agarose gel, 10 min 37 °C; ratios tested 0, 0.5, 1, 2.5, 5, 10 (w/w)
Method: as §4

LPS from E. coli O111:B4 = test: LPS-induced endotoxemia model, survival; type: in vivo, mouse (C57BL/6); details: followed 7 d, groups of eight mice
Method: Male C57BL/6 mice (8 weeks old, 22 ± 2 g) were intraperitoneally injected with 30 mg/kg of LPS (0.2 ml) from E. coli O111:B4 cells as previously described. Mice were intraperitoneally injected with Lfcin4 or Lfcin5 (10, 15 or 20 mg/kg of body weight in 0.2 ml) or colistin (15 mg/kg of body weight in 0.2 ml) at 0.5, 8 and 24 h after inoculation with LPS, respectively. Mice injected with LPS or saline only served as positive or mock-treated controls, respectively. Survival was recorded every 12 h and followed for up to 7 d.

LPS-induced lung injury = test: LPS-induced lung injury, histology; type: in vivo, mouse (C57BL/6); details: 15 mg/kg i.p. 30 min after LPS 10 mg/kg
Method: Thirty minutes after intraperitoneal injection of LPS (10 mg/kg of body weight in 0.2 ml), mice were intraperitoneally injected with Lfcin4, Lfcin5 or colistin (15 mg/kg of body weight in 0.2 ml). Mice were sacrificed at 8 h, 1 d, 4 d, and 7 d after LPS injection. The lungs were removed, washed with PBS and fixed in 4% paraformaldehyde at 4 °C for 24 h. After they were washed with PBS and dehydrated with a graded series of ethanol (75‒95%), the tissues were infiltrated with xylene and embedded in paraffin wax. Sections were cut, stained with hematoxylin and eosin and examined under a light microscope. Mice injected with LPS or only PBS served as positive or mock-treated controls, respectively.

Sequence: FKAWRWAWRMKKLAAPS [Lfcin4, 17-residue LfcinB17-31 derivative, Trp/Ala-containing]
- MIC [1]: 15 μM and 32 μg/ml
- MIC (E. coli CVCC1515): 15 μM and 32 μg/ml
- MIC (S. enteritidis CVCC3377 [2]): 1.8 μM and 4 μg/ml
- cell surface hydrophobicity (S. aureus ATCC25923 [3]): 18.87%
- cell surface hydrophobicity (S. enteritidis CVCC3377 [4]): 16.45%
- time to permeabilization of the outer membrane (NPN fluorescence) (S. aureus ATCC25923 [5]): ≤ 1 min
- time to permeabilization of the outer membrane (NPN fluorescence) (S. enteritidis CVCC337): ≤ 1 min
- peptide:DNA mass ratio at which migration of genomic DNA is impaired [6]: over 1.0 mass ratio (peptide:DNA)
- peptide:DNA mass ratio at which migration of genomic DNA is impaired [7]: over 1.0 mass ratio (peptide:DNA)
- survival rate (LPS from E. coli O111:B4; 10 mg/kg i.p. at 0.5, 8 and 24 h after LPS 30 mg/kg i.p.): 75%
- survival rate (LPS from E. coli O111:B4; 15 mg/kg i.p. at 0.5, 8 and 24 h after LPS 30 mg/kg i.p.): 100%
- survival rate (LPS from E. coli O111:B4; 20 mg/kg i.p. at 0.5, 8 and 24 h after LPS 30 mg/kg i.p.): 100%
- lung histology (in words) (LPS-induced lung injury; 8 h‒4 d): apparently less lung damage
- lung histology (in words) (LPS-induced lung injury; 7 d): no obvious pathological differences

Source: article PMC5347165, “Killing of Staphylococcus aureus and Salmonella enteritidis and neutralization of lipopolysaccharide by 17-residue bovine lactoferricins: improved activity of Trp/Ala-containing molecules” (Scientific Reports, 2017)
